According to patent US6281342A, “Pradimicin compounds” (Bristol-Myers Squibb Company, priority 1994, dated 2001):
Values after ≈ are worked out from the molar mass of the structure shown. Where two headings read alike, the source gives them in different places.

How the values were obtained:
[1] = tested on: Saccharomyces cerevisiae ATCC 9763; assay: MIC, two-fold agar dilution, S. cerevisiae ATCC 9763; assay type: cell-based; conditions: ATCC9763, YMA pH 7.0, 28° C., 40 hours
Description: (§1) Minimum inhibitory concentrations (MICs) of nine 4'-N-substituted pradimicin derivatives were determined by two-fold agar dilution method on phosphate-buffered yeast morphology agar (YMA, pH 7.0, Difco Laboratories). A 5-μl of fungal cell suspension containing 2×10^6 cells/ml (2×10^7 cells/ml for Trichophyton mentagrophytes) were spotted on the surface of the agar plates containing test compound. MICs were recorded after 40-hour incubation at 28° C. except for T. mentagrophytes, which required 60-hour incubation to produce visually evaluable growth on the drug-free control plates and were defined as the lowest antibiotic concentrations showing no growth or less than five discrete colonies per spot.
(§2) Medium: yeast morphology agar + 1/15 M phosphate buffer (pH 7.0)
(§3) Incubation conditions: 28° C., 40 hours (C. albicans ATCC 38247 & T.
(§4) Medium: Yeast morphology agar + 1/15 phosphate buffer (pH 7.0).

[2] = tested on: Trichophyton mentagrophytes #4329; assay: MIC, two-fold agar dilution, T. mentagrophytes #4329; assay type: cell-based
Description: as §1, §2, §3
(§5) mentagrophytes #4329: 28° C., 60 hours).
as §4

Candida albicans A9540 [3] = assay: animal or person; assay type: in vivo, male ICR mice infected with Candida albicans A9540; conditions: Candida albicans, A9540, 480 h, C. albicans, mice; for responders at 6.3 mg/kg: 6.3 mg/kg iv; for responders at 6.3 mg/kg / responders at 12.5 mg/kg / responders at 25 mg/kg / responders at 50 mg/kg: 20th day post-infection, read-out: S/T (No. of survivors/tested) (converted); for responders at 12.5 mg/kg: 12.5 mg/kg iv; for responders at 25 mg/kg: 25 mg/kg iv; for responders at 50 mg/kg: 50 mg/kg iv; for ED50: Table 2, iv, 95% confidence limits in parentheses, read-out: PD50 (50% protection dose)
Description: (§6) The in vivo therapeutic efficacies of seven 4'-N-substituted pradimicin derivatives, KHM-1, KHM-2, KHM-3, KHM-4, KHM-5, KHM-6 and KHM-7 were evaluated in the mouse infected with Candida albicans A9540 and Aspergillus fumigatusIAM 2034. Groups of five specific-pathogen-free male ICR mice weighing 20-25 g at each dose level were intravenously infected with approximately 10 times the 50% lethal dose of C. albicans A9540 (1×10^6 cells/mouse) or A. fumigatus IAM 2034 (1×10^7 cells/mouse). Immediately after the fungal infection, test compounds dissolved with 10% DMSO in distilled water were intravenously given to the mouse at the dosed volume of 0.1 ml/10 g of body weight. […] Untreated control animals died 7 to 13 days post-infection.

[4] = tested on: Candida albicans ATCC 38247; assay: MIC, two-fold agar dilution, C. albicans ATCC 38247; assay type: cell-based; conditions: ATCC38247, YMA pH 7.0, 28° C., 60 hours (table footnote)
Description: as §1, §2, §3, §5, §4

[5] = tested on: Aspergillus fumigatus IAM 2034; assay: Therapeutic efficacy in Aspergillus fumigatus systemic infection in mice; assay type: in vivo, male ICR mice infected with Aspergillus fumigatus IAM 2034; conditions: IAM2034, 480 h; for responders at 6.3 mg/kg: 6.3 mg/kg iv; for responders at 6.3 mg/kg / responders at 12.5 mg/kg / responders at 25 mg/kg / responders at 50 mg/kg: 20th day post-infection, read-out: S/T (No. of survivors/tested) (converted); for responders at 12.5 mg/kg: 12.5 mg/kg iv; for responders at 25 mg/kg: 25 mg/kg iv; for responders at 50 mg/kg: 50 mg/kg iv
Description: as §6

[6] = tested on: Aspergillus fumigatus IAM 2034; assay: MIC, two-fold agar dilution, A. fumigatus IAM 2034; assay type: cell-based; conditions: IAM2034
Description: as §1, §2, §3, §4

Candida tropicalis 85-8 = assay: MIC, two-fold agar dilution, C. tropicalis 85-8; assay type: cell-based; conditions: 858, YMA pH 7.0, 28° C., 40 hours
Description: as §1, §2, §3, §4

[7] = tested on: Cryptococcus neoformans IAM 4514; assay: MIC, two-fold agar dilution, C. neoformans IAM 4514; assay type: cell-based; conditions: IAM4514
Description: as §1, §2, §3, §4

[8] = tested on: Candida albicans ATCC 32354; assay: MIC, two-fold agar dilution, C. albicans ATCC 32354; assay type: cell-based; conditions: ATCC32354, YMA pH 7.0, 28° C., 40 hours
Description: as §1, §2, §3, §4

[9] = tested on: Cryptococcus neoformans D49; assay: MIC, two-fold agar dilution, C. neoformans D49; assay type: cell-based; conditions: YMA pH 7.0, 28° C., 40 hours
Description: as §1, §2, §3, §4

[10] = Water solubility at neutral pH in PBS containing Ca^2+/Mg^2+; assay type: physicochemical; conditions: pbs with ca2+/mg2+; Table 3; water-solubility at neutral pH in phosphate buffered saline containing Ca^2+/Mg^2+
Description: The compounds of the invention have good water solubility. Typically, the water solubility is greater than 10 mg/ml when measured at neutral pH in PBS containing Ca^2+ /Mg^2+, preferably greater than 20 mg/ml.
^2) Water-solubility at neutral pH in phosphate buffered saline
containing Ca^2+ /Mg^2+.

[11] = tested on: Candida albicans IAM 4888; assay: MIC, two-fold agar dilution, C. albicans IAM 4888; assay type: cell-based; conditions: IAM4888, YMA pH 7.0, 28° C., 40 hours
Description: as §1, §2, §3, §4

Candida albicans 83-2-14 = assay: MIC, two-fold agar dilution, C. albicans 83-2-14; assay type: cell-based; conditions: 83214, YMA pH 7.0, 28° C., 40 hours
Description: as §1, §2, §3, §4

Candida albicans A9540 [12] = assay: MIC, two-fold agar dilution, C. albicans A9540; assay type: cell-based
Description: as §1, §2, §3, §4

[13] = tested on: Candida tropicalis IFO 10241; assay: MIC, two-fold agar dilution, C. tropicalis IFO 10241; assay type: cell-based; conditions: IFO10241, YMA pH 7.0, 28° C., 40 hours
Description: as §1, §2, §3, §4

[14] = Table 3, Trichophyton mentagrophytes #4329, YMA, read-out: MIC TM-4
[15] = Trichophyton mentagrophytes #4329, YMA pH 7.0, 28° C., 60 hours, read-out: MIC
[16] = Aspergillus fumigatus, A. fumigatus, mice
[17] = Aspergillus fumigatus, Table 2, A. fumigatus, mice, iv, 95% confidence limits in parentheses, read-out: PD50 (50% protection dose)
[18] = Aspergillus fumigatus IAM 2034, YMA pH 7.0, 28° C., 40 hours, read-out: MIC
[19] = Table 3, Aspergillus fumigatus IAM 2034, YMA, read-out: MIC Af-3
[20] = Cryptococcus neoformans IAM 4514, YMA pH 7.0, 28° C., 40 hours, read-out: MIC
[21] = Table 3, Cryptococcus neoformans IAM 4514, YMA, read-out: MIC Cn-2
[22] = Candida albicans A9540, YMA pH 7.0, 28° C., 40 hours, read-out: MIC
[23] = Table 3, Candida albicans A9540, YMA, read-out: MIC Ca-4

| SMILES | MIC [1] | MIC [2, 14] | MIC [2, 15] | responders at 6.3 mg/kg (Candida albicans A9540 [3]) | responders at 12.5 mg/kg (Candida albicans A9540 [3]) | responders at 25 mg/kg (Candida albicans A9540 [3]) | responders at 50 mg/kg (Candida albicans A9540 [3]) | ED50 (Candida albicans A9540 [3]) | MIC [4] | responders at 6.3 mg/kg [5, 16] | responders at 12.5 mg/kg [5, 16] | responders at 25 mg/kg [5, 16] | responders at 50 mg/kg [5, 16] | ED50 [5, 17] | MIC [6, 18] | MIC [6, 19] | MIC (Candida tropicalis 85-8) | MIC [7, 20] | MIC [7, 21] | MIC [8] | other results |
| --- | --- | --- | --- | --- | --- | --- | --- | --- | --- | --- | --- | --- | --- | --- | --- | --- | --- | --- | --- | --- | --- |
| COc1cc(O)c2c(c1)C(=O)c1c(cc3c(c1O)-c1c(cc(C)c(C(=O)N[C@H](C)C(=O)O)c1O)[C@H](O[C@@H]1O[C@H](C)[C@H](NC#N)[C@H](O[C@@H]4OC[C@@H](O)[C@H](O)[C@H]4O)[C@H]1O)[C@H]3O)C2=O [KHM-2, 4'-N-Cyanopradimicin C] | 3.1 µg/mL (≈ 3.64 µM) | 12.5 µg/mL (≈ 14.7 µM) | 12.5 µg/mL (≈ 14.7 µM) | 20% | 40% | 80% | 100% | 13 mg/kg | 1.6 µg/mL (≈ 1.88 µM) | 0% | 20% | 40% | 60% | 27 mg/kg | 3.1 µg/mL (≈ 3.64 µM) | 3.1 µg/mL (≈ 3.64 µM) | 12.5 µg/mL (≈ 14.7 µM) | 1.6 µg/mL (≈ 1.88 µM) | 1.6 µg/mL (≈ 1.88 µM) | 3.1 µg/mL (≈ 3.64 µM) | MIC [9]: 3.1 µg/mL (≈ 3.64 µM); solubility [10]: > 20 mg/mL; MIC [11]: 3.1 µg/mL (≈ 3.64 µM); MIC (Candida albicans 83-2-14): 6.3 µg/mL (≈ 7.4 µM); MIC (Candida albicans A9540 [12]; [22]): 3.1 µg/mL (≈ 3.64 µM); MIC (Candida albicans A9540 [12]; [23]): 3.1 µg/mL (≈ 3.64 µM); MIC [13]: 12.5 µg/mL (≈ 14.7 µM) |
| COc1cc(O)c2c(c1)C(=O)c1c(cc3c(c1O)-c1c(cc(C)c(C(=O)N[C@H](CO)C(=O)O)c1O)[C@H](O[C@@H]1O[C@H](C)[C@H](NC#N)[C@H](O[C@@H]4OC[C@@H](O)[C@H](O)[C@H]4O)[C@H]1O)[C@H]3O)C2=O [KHM-4, 4'-N-Cyanopradimicin FA2] | 3.1 µg/mL (≈ 3.57 µM) | 12.5 µg/mL (≈ 14.4 µM) | 12.5 µg/mL (≈ 14.4 µM) | 0% | 20% | 60% | 80% | 20 mg/kg | 3.1 µg/mL (≈ 3.57 µM) | 0% | 0% | 0% | 0% | > 50 mg/kg | 6.3 µg/mL (≈ 7.26 µM) | 6.3 µg/mL (≈ 7.26 µM) | 12.5 µg/mL (≈ 14.4 µM) | 3.1 µg/mL (≈ 3.57 µM) | 3.1 µg/mL (≈ 3.57 µM) | 3.1 µg/mL (≈ 3.57 µM) | ED50 ([5]; Table 3, Aspergillus fumigatus IAM 2034, iv, read-out: PD50 (mice) Af-3): > 50 mg/kg; MIC [9]: 6.3 µg/mL (≈ 7.26 µM); solubility [10]: > 20 mg/mL; MIC [11]: 6.3 µg/mL (≈ 7.26 µM); MIC (Candida albicans 83-2-14): 6.3 µg/mL (≈ 7.26 µM); MIC (Candida albicans A9540 [12]; [22]): 6.3 µg/mL (≈ 7.26 µM); MIC (Candida albicans A9540 [12]; [23]): 6.3 µg/mL (≈ 7.26 µM); MIC [13]: 12.5 µg/mL (≈ 14.4 µM) |
